Data on 2 substances can be found in patent US20110104173A1, “INHIBITION OF DEGRADATION OF EXTRACELLULAR MATRIX” (The Australian National University, priority 2006, published 2011).

Experiment [1] relates to BALB/c (H-2d) islet allografts in CBA/H (H-2k) mice. As to the kind of experiment: BALB/c islet allograft survival in CBA/H mice. The format is in vivo, mouse. Particulars: 7 days post-transplant, PI-88 treated recipient vs control. An excerpt: HS plays a critical role in maintaining the integrity and survival of islets and islet beta cells. […] It is therefore possible that heparanase also plays an important role in the immunological destruction of islet allografts (even in the absence of autoimmune attack). […] Heparanase inhibitors therefore represent an anti-rejection strategy for islet transplants in allogeneic hosts and have the capacity to protect grafted islets from both alloimmune and autoimmune attack.

In experiment [2] the test system is NODscid islet isografts in diabetic NOD/Lt female mice. Put plainly: NODscid islet isografts in diabetic NOD/Lt mice, recurrence of autoimmune disease. The format is in vivo, mouse. An excerpt:
FIG. 8: (a) PI-88 therapy prevents disease recurrence in islet isografts. Isografts of 450-500 female NODscid islets transplanted beneath the kidney capsule of diabetic NOD/Lt female mice return non-fasting blood glucose levels to the normal range (shaded region defines the normal range). Without further treatment in a control recipient (circles), hyperglycemia returned from day 3. In contrast, an NODscid islet isograft maintains normoglycemia for up to 14 days in a diabetic NOD mouse treated with PI-88 (10 mg/kg/day i.p.) from day 3 (squares).
Consequently in vivo treatment of transplanted mice with PI-88 should prevent islet allograft rejection, disease recurrence in islet isografts (see FIG. 8) and facilitate the survival and function of islet allografts in diabetic NOD/Lt mice. To assess whether PI-88 therapy is graft-protective, NODscid islets were transplanted to autoimmune diabetic NOD mice 400-500 islets/graft. The mice were treated with PI-88 (10 mg/kg/day) i.p. from day 3 post-transplant (after graft revascularisation). Control transplanted mice were treated with saline. Graft function was monitored by measurement of non-fasting blood glucose levels (using a glucometer (MediSense 2)) 2-3×/week.

The test system of experiment [3] is lipopolysaccharride (LPS)-induced inflammation. Particulars: in vivo treatment, rodents; cited from earlier work.
For experiment [4], the system named is prediabetic adult female NOD/Lt mice. Put plainly: PI-88 treatment of prediabetic NOD/Lt mice, onset of autoimmune diabetes. The settings on record: PI-88 10 mg/kg/day i.p. from 10.5 weeks of age, vs saline controls. The format is in vivo, mouse. An excerpt:
FIG. 3: PI-88 treatment prevents development of autoimmune diabetes in NOD/Lt mice. […] The incidence of diabetes in the holding female NOD/Lt mouse colony of the inventors is 60%.
Studies conducted by the inventors have shown that heparanase transcripts are increased 7-fold in prediabetic and diabetes-onset NOD mice, compared to neonatal NOD mice; only background levels were detected in normal CBA/H mice (see TABLE 1).

In another experiment the test system is BALB/c islet beta cells. As to the kind of experiment: Islet beta cell survival in vitro after heparitinase treatment. The settings on record: 5-50 μg/ml heparin in culture, P<0.0001. The format is cell-based, mouse. An excerpt:
FIG. 9: Isolated islets dispersed into single cells are predominantly insulin-producing beta cells, as confirmed by immunofluorescence. In contrast to control islet cells that remained intact over a 2 day culture period, beta cells treated for 1 hr with bacterial heparitinases (heparinases) (I+II+III; 0.25 U/ml) died (a). Placement of treated cells on an ECM (produced in vitro by a cell line) was able to largely rescue the beta cells from heparitinase-induced cell death (a).
In vitro studies were undertaken to further validate this concept. Isolated BALB/c islets dispersed into single cells using Dispase (1 mg/ml) consist predominantly of insulin-producing beta cells, as confirmed by immunofluorescence. […] Placement of treated cells on an ECM (produced in vitro by a cell line) was able to largely rescue the beta cells from heparitinase-induced cell death (P<0.0001) (FIG. 9(a)). These findings indicate that islet beta cells need cell-associated HS to survive. […] Islet beta cells therefore require cell-associated HS to remain viable and healthy.

Another experiment has as its system skin allograft. The settings on record: heparins exhibiting some anti-heparanase activity, mice; cited from earlier work.

On to PI-88, for which, in experiment [1], the islet allograft histology result was “better preservation of the engrafted allogeneic islets”. The “time normoglycemia (non-fasting blood glucose) maintained by islet isograft” value in experiment [2] (PI-88 10 mg/kg/day i.p. from day 3 post-transplant, control hyperglycemic from day 3) is “up to 14 days”. For the same substance, in experiment [2] (PI-88-treated mouse, control isograft showed aggressive autoimmune destruction), the “isograft histology at harvest (hematoxylin and eosin)” value is listed as “revascularised islets”. Moreover, in experiment [3], the LPS-induced inflammation entry was “prevented”; the “leukocyte behaviour by intra-vital microscopy” value is “leukocyte rolling and adherence to the vascular BM but no extravasation”. In addition, the “onset of clinical diabetes” value in experiment [4] was “prevents the onset of clinical diabetes in mice up to 24 weeks of age”.
Consider heparin, for which the “rescue of heparitinase-treated beta cells from cell death” value in the experiment on BALB/c islet beta cells is “efficiently rescued”. Further, the skin allograft survival result in the experiment on skin allograft was “prolonged skin allograft survival”.
